Laboratory results reported in patent US6423307B1, “Bioadhesive complexes of polycarbophil and azole antifungal or antiprotozoal drugs” (Farmigea S.p.A., priority 1996, dated 2002).

Experiments:
[1] = tested on: C. albicans ATCC 48867; test: Antifungal assay in solid medium (inhibition halo); type: cell-based, Candida albicans
Procedure: (§1) Two standard American Type Culture Collection (ATCC) strains were used for the assays, i.e. those deposited under the numbers ATCC 48867 and ATCC 23866. Econazole (base) and the econazole-polycarbophil complex were prepared by using different concentrations of the active ingredient depending on the assay requirements, as well as different solvents (i.e. propylene glycol, DMSO), with or without a thickening excipient substance (i.e. hydroxypropylcellulose). The activity of each solvent was also tested, as well as the activity of the excipient and that of polycarbophil alone.
The antifungal activity has been evaluated in an assay in solid medium using Petri dishes containing Sabouraud medium with 2% agar. The dishes were uniformly seeded, with the aid of a sterile pad, with an aqueous suspension containing C. albicans at a density of 2 McFarland. By means of an instrument of 6 mm diameter, incisions were made on the dishes in order to obtain regular cavities in the agar thickness. Each one of the substances under test was placed in one of these cavities, in amounts ranging from 50 to 100 μl. The plates were then incubated for 24 h in a thermostat at 37° C. The antifungal activity was evaluated by measuring the diameter of the inhibition of C. albicans growth around each cavity.
The antifungal assay in solid medium turned out to be a highly sensitive and reproducible assay also for the products under test. At least five separate experiments for evaluating the inhibition halos were carried our for each one of the two different strains and for each one of the compounds examined. Similar results were obtained with each compound in all of the experiments performed.

[2] = tested on: C. albicans ATCC 23866; test: Susceptibility test in microplate (liquid medium), MIC; type: cell-based, Candida albicans; settings: 48 h at 37° C.
Procedure: as §1
(§2) Stock solutions of econazole (base) and of the econazole-polycarbophil complex were obtained by dissolving the compounds in DMSO at a concentration of 1.5 mg/ml. Two serial 10-fold dilutions in DMSO were made starting from the stock solutions, up to a concentration of 15 μg/ml. From this concentration each compound was subsequently diluted in Yeast Nitrogen Base medium, to which 0.5% glucose and 0.05% bovine albumin had been added. The mixtures were then placed, at different concentrations, in microplate wells (90 μl volume each). 10 μl of a suspension of C. albicans obtained by diluting by {fraction (1/10+L )} a preparation having a turbidity of 2 McFarland were then inoculated in each well. […]

[3] = tested on: C. albicans ATCC 48867; test: as above; type: cell-based, Candida albicans; settings: 48 h at 37° C.
Procedure: as §1, §2

[4] = tested on: Candida albicans, strain ATCC 48867; test: Experimental intravaginal infection by Candida albicans in a murine model; type: in vivo, CBA/J (H-2^k) mice; settings: for Not improved (% of mice): above 990 colonies; for Not improved (number of mice): vaginal wash 4 hours after dosing, above 990 colonies in 50 μl PBS; for Improved (% of mice) / Improved (number of mice): 100 to 990 colonies in 50 μl PBS; for Cured (number of mice): all cultures negative; for Sensibly improved (% of mice) / Sensibly improved (number of mice): less than 100 colonies in 50 μl PBS
Source text: In the frame of the microbiological experimentation of the products of the invention, the in vivo pharmacological activity of the econazole-polycarbophil complex has also been tested, in comparison with that of econazole (base), in the treatment of an experimental intravaginal infection by Candida albicans, reproduced in a murine model.
Vaginal candidiasis in rodents may be induced only in pseudoestrus conditions (P. L. Fidel, M. E. Lynch, J. D. Sobel, Infection and Immunity, 61 (5), 1993, 1990). For this reason, 72 hours before vaginal inoculation, the CBA/J (H-2^k) mice, described as sensible to such infection (P. L. Fidel, J. L. Cutright, J. D. Sobel, Infection and Immunity, 63 (10), 1995, 4191) were treated with 0.5 mg of estradiol valerate, dissolved in sesame oil, administered by subcutaneous route. The estrogen administration was repeated weekly until completion of the study. Blastoconoids (5×10^5) of Candida albicans, strain ATCC 48867, were inoculated in the vagina of mice previously treated with estrogens. After one week from the inoculation, the infection degree was evaluated by means of vaginal washing and subsequent count of the colony-forming units (CFU) on plates of Sabouraud agar, to which chloramphenicol and gentamicin had been added.
The infected animals were divided into three test groups, each one of which underwent a therapeutic treatment for five subsequent days (from day 1 to day 5). Each therapeutic treatment respectively consisted of: 1) econazole (base) (0.5 wt. % and 1 wt. %); 2) econazole-polycarbophil complex (0.5 wt. % and 1 wt. % calculated as econazole); 3) excipients (control group).
The infection degree was checked before starting the treatment and at the end thereof (day 6). […] The statistical evaluation of the results was made by means of the χ^2 test.

[5] = 0.5 wt. % econazole, 5 days, checked day 6

SMILES: Clc1ccc(COC(Cn2ccnc2)c2ccc(Cl)cc2Cl)cc1 (stereo not shown) [econazole (base), 1-{2-[(4-chlorophenyl)methoxy]-2-(2,4-dichlorophenyl)ethyl}-1H-imidazole]
- Diameter of inhibition halo ([1]; Concentration 3 × 10^−2 %, preparation with HPC): 31.2 ± 0.84 mm
- Diameter of inhibition halo ([1]; Concentration 3 × 10^−2 %, preparation without HPC): 31.2 ± 0.84 mm
- Diameter of inhibition halo ([1]; Concentration 3 × 10^−3 %, preparation with HPC): 29.4 ± 0.89 mm
- Diameter of inhibition halo ([1]; Concentration 3 × 10^−3 %, preparation without HPC): 28.6 ± 0.55 mm
- Diameter of inhibition halo ([1]; Concentration 3 × 10^−4 %, preparation with HPC): 20.8 ± 1.30 mm
- Diameter of inhibition halo ([1]; Concentration 3 × 10^−4 %, preparation without HPC): 20.2 ± 1.09 mm
- Diameter of inhibition halo ([1]; Concentration 3 × 10^−5 %, preparation with HPC): 13.0 ± 1.00 mm
- Diameter of inhibition halo ([1]; Concentration 3 × 10^−5 %, preparation without HPC): 12.4 ± 0.58 mm
- Minimal inhibitory concentration [2]: 5.6 ± 0.4 μg/ml of econazole
- Minimal inhibitory concentration [3]: 5.6 ± 0.3 μg/ml of econazole
- Not improved (% of mice) [4, 5]: 11.11%
- Not improved (number of mice) [4, 5]: 1
- Improved (% of mice) ([4]; 0.5 wt. % econazole): 66.66%
- Improved (number of mice) ([4]; 0.5 wt. % econazole): 6
- Cured (number of mice) ([4]; 0.5 wt. % econazole): 0
- Sensibly improved (% of mice) ([4]; 0.5 wt. % econazole): 22.22%
- Sensibly improved (number of mice) ([4]; 0.5 wt. % econazole): 2
- Not improved (number of mice) ([4]; 1 wt. % econazole, 5 days, checked day 6): 3
- Improved (% of mice) ([4]; 1 wt. % econazole): 56.25%
- Improved (number of mice) ([4]; 1 wt. % econazole): 9
- Not improved (% of mice) ([4]; 1 wt. % econazole): 18.75%
- Cured (number of mice) ([4]; 1 wt. % econazole): 0
- Sensibly improved (% of mice) ([4]; 1 wt. % econazole): 25.00%
- Sensibly improved (number of mice) ([4]; 1 wt. % econazole): 4
- cured animals added to sensibly cured animals (% of mice) ([4]; 1 wt. % econazole, p=0.0131 between groups): 25%
